Source: patent publication US5747447A, “Stable polypeptide composition” (COR Therapeutics, priority 1995, dated 1998)
*1 amine or outer side, *2 acyl side, *3 side chain or, on linkers, in order; H or OH if unused. Where a SMILES comes first, the peptide text is derived from it. Bridges are numbered along the chain shown (N, C = ends). Where no end group is shown, it is not given here. [ ]: non-standard residue; d: D form. X1 = N=C(NCCCC[C@H](N[*:1])C(=O)[*:2])c1ccccc1; Phe(4-Cl) = N[C@@H](Cc1ccc(Cl)cc1)C(=O)O; X2 = CC(=N)NCCCC[C@H](N[*:1])C(=O)[*:2]; 2Nal = N[C@@H](Cc1ccc2ccccc2c1)C(=O)O; NMeF = CN[C@@H](Cc1ccccc1)C(=O)O; hArg = N=C(N)NCCCC[C@H](N)C(=O)O; NMeL = CN[C@@H](CC(C)C)C(=O)O; Pen = CC(C)(S)[C@H](N)C(=O)O; Pip = O=C(O)[C@@H]1CCCCN1; NMeA = CN[C@@H](C)C(=O)O; Orn = NCCC[C@H](N)C(=O)O; Thz = O=C(O)[C@@H]1CSCN1; Aib = CC(C)(N)C(=O)O; Mpa = O=C(O)CCS; Sar = CNCC(=O)O

The molecules below were run against ADP-induced human platelet aggregation (Homo sapiens, UniProt P05106+P08514) (assay: standard aggregation inhibition assay (ADP-induced human platelet aggregation)). Conditions: ADP-induced human platelet aggregation; read-out: Appr, IC50.
Assay type: cell-based
Excerpt: 2. Standard assays directly applied to platelet aggregation, such as those described by Gann, Z.-R., et al., J Biol Chem (1988) 263:19827-19832; Huang, T. F., et al., J Biol Chem (1987) 262:16157-16163; Biochemistry (1989) 28:661-666, cited above and incorporated herein by reference;

Compared with `CC1(C)SSCCC(=O)N[C@H](CCCCN)C(=O)NCC(=O)N[C@@H](CC(=O)O)C(=O)N[C@@H](Cc2c[nH]c3ccccc23)C(=O)N2CCC[C@H]2C(=O)N[C@@H]1C(N)=O` [Analog #62, Mpr-K.dagger.-G-D-W-P-Pen-NH2] ([Mpa][dK]GDWP[Pen]-NH2; disulfide 1-7), `CC1(C)SSCCC(=O)N[C@@H](CCCCN)C(=O)NCC(=O)N[C@@H](CC(=O)O)C(=O)N[C@@H]1C(N)=O` [Analog #9, Mpr-K-G-D-Pen-NH2] ([Mpa]KGD[Pen]-NH2; disulfide 1-5) is 10-fold higher in IC50: 2500 nM for the first, 25000 nM for the second.

Going from `CC1(C)SSCCC(=O)N[C@@H](CCCCN)C(=O)NCC(=O)N[C@@H](CC(=O)O)C(=O)N[C@@H](Cc2c[nH]c3ccccc23)C(=O)N2CCC[C@H]2C(=O)N[C@@H]1C(N)=O` [Analog #51, Mpr-K-G-D-W-P-Pen-NH2] ([Mpa]KGDWP[Pen]-NH2; disulfide 1-7) to `NCCCC[C@@H]1NC(=O)CCSSC[C@@H](C(N)=O)NC(=O)[C@@H]2CSCN2C(=O)[C@H](Cc2c[nH]c3ccccc23)NC(=O)[C@H](CC(=O)O)NC(=O)CNC1=O` [Analog #55, Mpr-K-G-D-W-(Thz)-C-NH2] ([Mpa]KGDW[Thz]C-NH2; disulfide 1-7), the IC50 rises from 750 nM to 2000 nM (2.7-fold).

Going from `CN1C(=O)[C@H](CC(=O)O)NC(=O)CNC(=O)[C@H](CCCCN)NC(=O)[C@@H](N)CSSC[C@@H](C(N)=O)NC(=O)[C@@H]2CCCN2C(=O)[C@@H]1Cc1ccccc1` [Analog #45, C-K-G-D-(NMePhe)-P-C-NH2] (H-CKGD[NMeF]PC-NH2; disulfide 1-7) to `CC1(C)SSCCC(=O)N[C@@H](CCCCNC(=N)c2ccccc2)C(=O)NCC(=O)N[C@@H](CC(=O)O)C(=O)N[C@@H](Cc2c[nH]c3ccccc23)C(=O)N2CCC[C@H]2C(=O)N[C@@H]1C(N)=O` [Analog #72, Mpr-(Phenylimidyl-Lys)-G-D-W-P-Pen-NH2] ([Mpa][X1]GDWP[Pen]-NH2; disulfide 1-7), the IC50 falls from > 200000 nM to 500 nM.

Compared with CKGD[Phe(4-Cl)]P-NH2 [Analog #42], “CKGDYPC-NH2 (cysteine pairing not given here) [Analog #12]” is 1.7-fold lower in IC50: 20000 nM for the first, 12000 nM for the second.

First: Ac-CKGDWPC-NH2 (cysteine pairing not given here) [Analog #47]
Second: CKGEWPC-NH2 (cysteine pairing not given here) [Analog #35]
The IC50 of the first is lower: 2500 nM for the first, > 300000 nM for the second.

Compared with “CKGDWPC-NH2 (cysteine pairing not given here) [Analog #10]”, “[Mpa]KGD[2Nal]P[Pen]-NH2 (cysteine pairing not given here) [Analog #57]” is 5-fold lower in IC50: 5000 nM for the first, 1000 nM for the second.

First: CC1(C)SSCCC(=O)N[C@@H](CCCCNC(=N)N)C(=O)NCC(=O)N[C@@H](CC(=O)O)C(=O)N[C@@H](Cc2c[nH]c3ccccc23)C(=O)N2CCC[C@H]2C(=O)N[C@@H]1C(N)=O [Analog #63, Mpr-(Har)-G-D-W-P-Pen-NH2] ([Mpa][hArg]GDWP[Pen]-NH2; disulfide 1-7)
Second: Mpr-Har-Sar-D-W-P-C-NH2 [Analog #68]
The IC50 of the first is 30-fold lower: 100 nM for the first, 3000 nM for the second.

First: NCCC[C@@H]1NC(=O)[C@@H](N)CSSC[C@@H](C(N)=O)NC(=O)[C@@H]2CCCN2C(=O)[C@H](Cc2c[nH]c3ccccc23)NC(=O)[C@H](CC(=O)O)NC(=O)CNC1=O [Analog #36, C-Orn-G-D-W-P-C-NH2] (H-C[Orn]GDWPC-NH2; disulfide 1-7)
Second: CC1(C)SSCCC(=O)N[C@@H](CCCCN)C(=O)NCC(=O)N[C@@H](CC(=O)O)C(=O)N[C@@H](Cc2c[nH]c3ccccc23)C(=O)N2CCCC[C@H]2C(=O)N[C@@H]1C(N)=O [Analog #59, Mpr-K-G-D-W-(Pip)-Pen-NH2] ([Mpa]KGDW[Pip][Pen]-NH2; disulfide 1-7)
The IC50 of the first is higher: 150000 to 200000 nM for the first, 1000 nM for the second. The second is the more potent here.

Going from `CC1(C)SSCCC(=O)N[C@@H](CCCCN)C(=O)NCC(=O)N[C@H](CC(=O)O)C(=O)N[C@@H](Cc2c[nH]c3ccccc23)C(=O)N2CCC[C@H]2C(=O)N[C@@H]1C(N)=O` [Analog #54, Mpr-K-G-D.dagger.-W-P-Pen-NH2] ([Mpa]KG[dD]WP[Pen]-NH2; disulfide 1-7) to `CC(=N)NCCCC[C@@H]1NC(=O)CCSSC[C@@H](C(N)=O)NC(=O)[C@@H]2CCCN2C(=O)[C@H](Cc2c[nH]c3ccccc23)NC(=O)[C@H](CC(=O)O)NC(=O)CNC1=O` [Analog #64, Mpr-(Acetimidyl-Lys)-G-D-W-P-C-NH2] ([Mpa][X2]GDWPC-NH2; disulfide 1-7), the IC50 falls from > 100000 nM to 250 nM. The second is the more potent here.

Going from “CKADWPC-NH2 (cysteine pairing not given here) [Analog #37]” to `CC1(C)SSCCC(=O)N[C@@H](CCCCN)C(=O)NCC(=O)N[C@@H](CC(=O)O)C(=O)N[C@@H](Cc2c[nH]c3ccccc23)C(=O)N2CCC[C@@H]2C(=O)N[C@@H]1C(N)=O` [Analog #53, Mpr-K-G-D-W-P.dagger.-Pen-NH2] ([Mpa]KGDW[dP][Pen]-NH2; disulfide 1-7), the IC50 rises from 100000 nM to > 200000 nM.

“CKGDWGC-NH2 (cysteine pairing not given here) [Analog #34]” showed an IC50 of 100000 nM.

Same assay, conditions: PAI activity, Example 15; read-out: Appr.IC20

In order of rising IC20:
1. C[C@H]1NC(=O)[C@@H]2CCCN2C(=O)[C@H](Cc2c[nH]c3ccccc23)NC(=O)[C@H](CC(=O)O)NC(=O)CNC(=O)[C@H](CCCCNC(=N)N)NC(=O)CCSSC[C@@H](C(N)=O)NC1=O [PAI 96, Mpr-Har-G-D-W-P-A.dagger.-C-NH2] ([Mpa][hArg]GDWP[dA]C-NH2; disulfide 1-8)  230 nM
2. N=C(N)NCCCC[C@@H]1NC(=O)[C@H](CO)NC(=O)CCSSC[C@@H](C(N)=O)NC(=O)[C@@H]2CCCN2C(=O)[C@H](Cc2c[nH]c3ccccc23)NC(=O)[C@H](CC(=O)O)NC(=O)CNC1=O [PAI 92, Mpr-S-Har-G-D-W-P-C-NH2] ([Mpa]S[hArg]GDWPC-NH2; disulfide 1-8)  240 nM
3. CN1CC(=O)N[C@@H](CCCCNC(=N)N)C(=O)NCC(=O)N[C@@H](CC(=O)O)C(=O)N[C@@H](Cc2c[nH]c3ccccc23)C(=O)N2CCC[C@H]2C(=O)N[C@H](C(N)=O)CSSCCC1=O [PAI 90, Mpr-Sar-Har-G-D-W-P-C-NH2] ([Mpa][Sar][hArg]GDWPC-NH2; disulfide 1-8)  270 nM
4. CC(C)[C@@H]1NC(=O)CCSSC[C@@H](C(N)=O)NC(=O)[C@@H]2CCCN2C(=O)[C@H](Cc2c[nH]c3ccccc23)NC(=O)[C@H](CC(=O)O)NC(=O)CNC(=O)[C@H](CCCCNC(=N)N)NC1=O [PAI 91, Mpr-V-Har-G-D-W-P-C-NH2] ([Mpa]V[hArg]GDWPC-NH2; disulfide 1-8)  350 nM
5. C[C@@H]1NC(=O)CCSSC(C)(C)[C@@H](C(N)=O)NC(=O)[C@@H]2CCCN2C(=O)[C@H](Cc2c[nH]c3ccccc23)NC(=O)[C@H](CC(=O)O)NC(=O)CNC(=O)[C@H](CCCCNC(=N)N)NC1=O [PAI 100, Mpr-A-(Har)-G-D-W-P-Pen-NH2] ([Mpa]A[hArg]GDWP[Pen]-NH2; disulfide 1-8)  370 nM
6. Mpr-Har-G-D-W-P-(Aib)-NH2 ([Mpa][hArg]GDWP[Aib]-NH2; SMILES CC(C)(NC(=O)[C@@H]1CCCN1C(=O)[C@H](Cc1c[nH]c2ccccc12)NC(=O)[C@H](CC(=O)O)NC(=O)CNC(=O)[C@H](CCCCNC(=N)N)NC(=O)CCS)C(N)=O) [PAI 99]  460 nM
7. C[C@H]1C(=O)N[C@@H](CCCCNC(=N)N)C(=O)NCC(=O)N[C@@H](CC(=O)O)C(=O)N[C@@H](Cc2c[nH]c3ccccc23)C(=O)N2CCC[C@H]2C(=O)N[C@H](C(N)=O)CSSCCC(=O)N1C [PAI 89, Mpr-(N-Me-Ala)-Har-G-D-W-P-C-NH2] ([Mpa][NMeA][hArg]GDWPC-NH2; disulfide 1-8)  620 nM
8. CC(C)C[C@H]1C(=O)N[C@@H](CCCCNC(=N)N)C(=O)NCC(=O)N[C@@H](CC(=O)O)C(=O)N[C@@H](Cc2c[nH]c3ccccc23)C(=O)N2CCC[C@H]2C(=O)N[C@H](C(N)=O)CSSCCC(=O)N1C [PAI 88, Mpr-(N-Me-Leu)-Har-G-D-W-P-C-NH2] ([Mpa][NMeL][hArg]GDWPC-NH2; disulfide 1-8)  840 nM
9. C[C@H]1NC(=O)CCSSC[C@@H](C(N)=O)NC(=O)[C@@H]2CCCN2C(=O)[C@H](Cc2c[nH]c3ccccc23)NC(=O)[C@H](CC(=O)O)NC(=O)CNC(=O)[C@H](CCCCNC(=N)N)NC1=O [PAI 86, Mpr-A.dagger.-Har-G-D-W-P-C-NH2] ([Mpa][dA][hArg]GDWPC-NH2; disulfide 1-8)  1150 nM
10. N=C(N)NCCCC[C@@H]1NC(=O)[C@@H]2CCCN2C(=O)CCSSC[C@@H](C(N)=O)NC(=O)[C@@H]2CCCN2C(=O)[C@H](Cc2c[nH]c3ccccc23)NC(=O)[C@H](CC(=O)O)NC(=O)CNC1=O [PAI 80, Mpr-P-Har-G-D-W-P-C-NH2] ([Mpa]P[hArg]GDWPC-NH2; disulfide 1-8)  1290 nM
11. N=C(N)NCCCC[C@@H]1NC(=O)CCSSC[C@@H](C(N)=O)NC(=O)[C@@H]2CCCN2C(=O)[C@@H]2CCCN2C(=O)[C@H](Cc2c[nH]c3ccccc23)NC(=O)[C@H](CC(=O)O)NC(=O)CNC1=O [PAI 97, Mpr-Har-G-D-W-P-P-C-NH2] ([Mpa][hArg]GDWPPC-NH2; disulfide 1-8)  1400 nM
12. CC1(C)NC(=O)CCSSC[C@@H](C(N)=O)NC(=O)[C@@H]2CCCN2C(=O)[C@H](Cc2c[nH]c3ccccc23)NC(=O)[C@H](CC(=O)O)NC(=O)CNC(=O)[C@H](CCCCNC(=N)N)NC1=O [PAI 83, Mpr-Aib-Har-G-D-W-P-C-NH2] ([Mpa][Aib][hArg]GDWPC-NH2; disulfide 1-8)  2200 nM
13. C[C@@H]1NC(=O)[C@@H]2CCCN2C(=O)[C@H](Cc2c[nH]c3ccccc23)NC(=O)[C@H](CC(=O)O)NC(=O)CNC(=O)[C@H](CCCCNC(=N)N)NC(=O)CCSSC[C@@H](C(N)=O)NC1=O [PAI 93, Mpr-Har-G-D-W-P-A-C-NH2] ([Mpa][hArg]GDWPAC-NH2; disulfide 1-8)  3330 nM
14. N=C(N)NCCCC[C@@H]1NC(=O)CCSSC[C@@H](C(N)=O)NC(=O)CNC(=O)[C@@H]2CCCN2C(=O)[C@H](Cc2c[nH]c3ccccc23)NC(=O)[C@H](CC(=O)O)NC(=O)CNC1=O [PAI 95, Mpr-Har-G-D-W-P-G-C-NH2] ([Mpa][hArg]GDWPGC-NH2; disulfide 1-8)  8660 nM
